Results as given in PubChem BioAssay (NCI).
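48-hour exposure; five concentrations; linearly interpolated endpoints. TGI denotes the concentration required for complete inhibition of growth.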

Key:
Assay in all cases: growth of human tumour cells (NCI), 48 h
OVCAR-5 ovarian = test system: OVCAR-5 ovarian
HCC-2998 colon = test system: HCC-2998 colon
OVCAR-8 ovarian = test system: OVCAR-8 ovarian
U251 CNS = test system: U251 CNS
SK-MEL-2 melanoma = test system: SK-MEL-2 melanoma
HCT-15 colon = test system: HCT-15 colon
HS 578T breast = test system: HS 578T breast
MALME-3M melanoma = test system: MALME-3M melanoma
UACC-257 melanoma = test system: UACC-257 melanoma
OVCAR-3 ovarian = test system: OVCAR-3 ovarian
COLO 205 colon = test system: COLO 205 colon
SK-MEL-5 melanoma = test system: SK-MEL-5 melanoma
TK-10 renal = test system: TK-10 renal
UO-31 renal = test system: UO-31 renal
A549 NSCLC = test system: A549 NSCLC
BT-549 breast = test system: BT-549 breast
SK-OV-3 ovarian = test system: SK-OV-3 ovarian
HOP-62 NSCLC = test system: HOP-62 NSCLC
SN12C renal = test system: SN12C renal
HOP-92 NSCLC = test system: HOP-92 NSCLC

| SMILES | TGI (OVCAR-5 ovarian) | TGI (HCC-2998 colon) | TGI (OVCAR-8 ovarian) | TGI (U251 CNS) | TGI (SK-MEL-2 melanoma) | TGI (HCT-15 colon) | TGI (HS 578T breast) | TGI (MALME-3M melanoma) | TGI (UACC-257 melanoma) | TGI (OVCAR-3 ovarian) | TGI (COLO 205 colon) | TGI (SK-MEL-5 melanoma) | TGI (TK-10 renal) | TGI (UO-31 renal) | TGI (A549 NSCLC) | TGI (BT-549 breast) | TGI (SK-OV-3 ovarian) | TGI (HOP-62 NSCLC) | TGI (SN12C renal) | TGI (HOP-92 NSCLC) |
| --- | --- | --- | --- | --- | --- | --- | --- | --- | --- | --- | --- | --- | --- | --- | --- | --- | --- | --- | --- | --- |
| CN(C)CCNC(=O)c1cccc2c1Oc1cccc([N+](=O)[O-])c1O2 | 39.5 µM | 56.1 µM | 50 µM | 42.8 µM | 49.3 µM | > 100 µM | 40.2 µM | 28.1 µM | 35.5 µM | 49.7 µM | 36 µM | 33.2 µM | > 100 µM | 32.5 µM | 35.9 µM | 33.6 µM | 37.4 µM | 30.6 µM | > 100 µM | – |
| COc1ccc(CCc2ccc3c(c2)OCO3)cc1 | > 100 µM | > 100 µM | > 100 µM | > 100 µM | 92.4 µM | > 100 µM | > 100 µM | > 100 µM | > 100 µM | > 100 µM | > 100 µM | > 100 µM | > 100 µM | – | > 100 µM | > 100 µM | > 100 µM | > 100 µM | > 100 µM | > 100 µM |
| C=CCc1oc(C)nc1CCCC | > 100 µM | > 100 µM | > 100 µM | > 100 µM | – | > 100 µM | > 100 µM | > 100 µM | > 100 µM | > 100 µM | > 100 µM | > 100 µM | > 100 µM | > 100 µM | > 100 µM | > 100 µM | > 100 µM | > 100 µM | > 100 µM | > 100 µM |
| CC(=Nc1cccc(Cl)c1)c1ccncc1 | > 100 µM | > 100 µM | > 100 µM | > 100 µM | > 100 µM | > 100 µM | > 100 µM | > 100 µM | – | > 100 µM | > 100 µM | > 100 µM | > 100 µM | > 100 µM | > 100 µM | > 100 µM | > 100 µM | > 100 µM | > 100 µM | > 100 µM |
| CSc1ncc2c(C#N)c3[nH]c4ccccc4n3c(=O)c2n1 | > 100 µM | 42.7 µM | 98.8 µM | > 100 µM | 33 µM | 76.4 µM | > 100 µM | – | > 100 µM | 45.2 µM | 35.1 µM | 25.2 µM | > 100 µM | > 100 µM | – | > 100 µM | > 100 µM | > 100 µM | > 100 µM | > 100 µM |
| O=C(/C=C/c1ccccc1)c1cc(C(=O)/C=C/c2ccccc2)c(O)cc1O | > 100 µM | > 100 µM | > 100 µM | – | > 100 µM | > 100 µM | 83.7 µM | > 100 µM | > 100 µM | – | > 100 µM | > 100 µM | > 100 µM | > 100 µM | > 100 µM | > 100 µM | > 100 µM | > 100 µM | > 100 µM | > 100 µM |
| Cc1cc(S(=O)(=O)NC2=NCCCN2)c(S)cc1Cl | > 100 µM | > 100 µM | 67.6 µM | > 100 µM | 77.7 µM | > 100 µM | 86.7 µM | 72.4 µM | > 100 µM | > 100 µM | > 100 µM | 32.4 µM | 74.7 µM | > 100 µM | 53.9 µM | 36.4 µM | > 100 µM | > 100 µM | > 100 µM | – |
| O=C(Cn1c(C(=O)/C=C/c2ccc(Cl)cc2)nc2ccccc21)c1ccc(Cl)cc1 | 64.1 µM | 32.4 µM | – | 33.4 µM | 39.5 µM | 51.8 µM | 29.1 µM | 52.6 µM | 68.2 µM | 22.9 µM | 36.1 µM | 29.3 µM | 98.5 µM | 43 µM | 71.5 µM | 55.2 µM | > 100 µM | 41.6 µM | 37.3 µM | > 100 µM |
| COc1c2cc([N+](=O)[O-])cc1CN(C(=O)C(F)(F)F)CCOCCN(C(=O)C(F)(F)F)C2 | > 100 µM | – | > 100 µM | > 100 µM | > 100 µM | > 100 µM | > 100 µM | > 100 µM | > 100 µM | > 100 µM | > 100 µM | > 100 µM | > 100 µM | > 100 µM | > 100 µM | > 100 µM | > 100 µM | > 100 µM | > 100 µM | > 100 µM |
| CCOC(=O)CC(=O)Nc1cccc2sc3ncccc3c(=O)c12 | > 100 µM | > 100 µM | > 100 µM | > 100 µM | > 100 µM | > 100 µM | > 100 µM | > 100 µM | > 100 µM | > 100 µM | > 100 µM | 40.5 µM | > 100 µM | > 100 µM | > 100 µM | > 100 µM | > 100 µM | > 100 µM | > 100 µM | – |
| CCOC(=O)c1csc(C(CSCc2ccc(OC)cc2)N2C(=O)c3ccccc3C2=O)n1 (stereo not given) | > 100 µM | > 100 µM | > 100 µM | > 100 µM | – | > 100 µM | > 100 µM | > 100 µM | > 100 µM | > 100 µM | > 100 µM | > 100 µM | > 100 µM | > 100 µM | > 100 µM | > 100 µM | > 100 µM | > 100 µM | > 100 µM | > 100 µM |
| C1=Nc2ccc(cc2)-c2ccc(cc2)N=Cc2ccc(cc2)OCc2cccc(n2)COc2ccc1cc2 | > 100 µM | – | > 100 µM | > 100 µM | > 100 µM | > 100 µM | 73.2 µM | > 100 µM | > 100 µM | > 100 µM | > 100 µM | > 100 µM | – | > 100 µM | > 100 µM | > 100 µM | > 100 µM | > 100 µM | > 100 µM | > 100 µM |
